# Measurements as given in patent US11384358B2, “Method of regulating gene expression in a cell” (President and Fellows of Harvard College, priority 2017, dated 2022).
# How the values were obtained:
# Format in all cases: cell-based
# [1] = test system: L. gasseri; experiment: susceptibility of Lactobacillus strains to tetracycline (growth inhibition)
# [2] = test system: L. rhamnosus GG; experiment: as above
# Procedure: (§1) An expression system that is inducible by tetracycline in Lactobacilli is described as follows. […] A BLAST analysis of the TetR protein sequence as well as the TetA tetracycline efflux pump that drives resistance was performed, across all available Lactobacillus proteomes and potential homologs in L. lactis, and L. plantarum were identified, because they carry a transferrable plasmid harboring tetM and tetS genes.
# [3] = test system: L. jensenii; experiment: as above
# Procedure: as §1
# [4] = test system: L. crispatus; experiment: as above
# [5] = test system: TetR regulon paired with slpA-tetO variant 2; experiment: aTc induction of fluorescent reporter, TetR regulon (L. plantarum promoter) paired with slpA-tetO variant 2; conditions: L. rhamnosus GG; 0.3125-10 ng/mL aTc; early exponential, mid-exponential and stationary phase; FIG. 1
# Procedure: To evaluate the functionality of the aTc induction system described herein in lactic acid bacteria, the TetR regulon described herein is driven by a L. plantarum promoter paired with slpA-tetO variant 2 (current SEQ IDs 1 and 2), into L. rhamnosus GG via electroporation with a high copy plasmid. Sequence verified colonies, as well as colonies harboring a negative control plasmid with no fluorescence reporter, were then picked in triplicate, and used to inoculate liquid cultures that were grown overnight. These overnight cultures were then sub-cultured 1/100 into fresh media, in duplicate—one culture containing 10 ng/mL aTc, the other containing no inducing agent. The culture with inducing agent, was then serially diluted by 50%, 5 times (yielding cultures with 5, 2.5, 1.25, 0.625, and 0.3125 ng/mL of aTc, in addition to the original 10 ng/mL culture). These cultures were then grown to an optical density of 0.2 (to capture lag phase behavior), 0.6 (log phase), and 1.0 (stationary phase), as measured by an optical cell density meter. At each optical density, the fluorescence of all cultures and replicates were measured in absolute units in a fluorimeter. Relative fluorescence units were then computed as a fold change value over the measured fluorescence of the negative control cell cultures that were known to not express fluorescence protein.
# [6] = test system: aTc-inducible expression cassette encoding J3-VHH secretion; experiment: aTc-induced secretion of HisTagged J3-VHH nanobody, protein gel of purified culture supernatant; conditions: L. gasseri with inducible cassette (SEQ ID NO: 2); 500 ng/mL aTc added at optical density 0.4; FIG. 17
# Excerpt: According to one aspect, an inducible expression system is used prevent expression during bacterial culture and clone isolation. According to one aspect, expression is controlled and kept off during bacterial culture and clone isolation to avoid or lower or reduce or inhibit secretion-induced toxicity. According to one aspect, the level of a HisTagged, anti-HIV (gp120) camelid nanobody (J3-VHH) purified from culture supernatant, when secretion of protein was driven by an inducible system (SEQ ID NO: 2) was compared to a system using an uncontrolled, constitutive slpA. Cells (in this case, L. gasseri) without an expression cassette (negative control with no protein expected), an aTc-inducible expression cassette encoding J3-VHH secretion, and an equivalent, but constitutive expression cassette, were grown in culture to an optical density of 0.4 (the start of the exponential growth phase, during which time cellular protein production capacity is maximal), and split into two equal volumes—500 ng/mL of aTc was added to one, while the other received no aTc (as an internal negative control to verify functional induction).
# [7] = test system: TetR regulon paired with slpA-tetO variant 2; experiment: aTc induction of fluorescent reporter in L. gasseri; conditions: similar experimental conditions, FIG. 15
# [8] = test system: L. rhamnosus GG; experiment: leakage and induction of aTc-inducible slpA promoter variant (FIG. 16)
# Excerpt: An exemplary aTc-inducible slpA promoter variant is provided in SEQ ID NO:15 which includes the alterations above resulting in a combined, maximally repressive variant. In one embodiment, a promoter sequence has at least 85% homology, at least 90% homology, at least 95% homology, at least 97% homology, at least 98% homology or at least 99% homology to SEQ ID NO:15. All of the described alterations work in concert to achieve an inducible system that has essentially undetectable levels of leakage in all phases of growth.
# [9] = test system: L. rhamnosus GG; experiment: promoter variants driving fluorescent reporter in plasmid with no TetR, L. rhamnosus GG
# Procedure: FIG. 11 depicts minimum free energy mRNA structural folding predictions. Each of these variants was then tested in a plasmid with no TetR (meaning the inserted promoters are not repressed, and should be constitutively active), driving a fluorescent reporter. […] Subsequently, this test was replicated in L. rhamnosus GG. […] Therefore, only variant 2 was selected for testing in the presence of TetR. […] See McCracken et al. J Bacteriol 181(20):6569-6572 (1999).
# [10] = relative expression strength of promoters by fluorescence (FIG. 12)
molecule,measurement,setting,value
CN(C)[C@@H]1C(O)=C(C(N)=O)C(=O)[C@@]2(O)C(O)=C3C(=O)c4c(O)cccc4[C@@](C)(O)[C@H]3C[C@@H]12 [tetracycline],tetracycline concentration at which growth is inhibited,[1],≤ 2 mg/mL
same,tetracycline concentration at which growth is inhibited,[2],≤ 2 mg/mL
same,tetracycline concentration at which growth is inhibited,[3],≤ 2 mg/mL
same,tetracycline concentration at which growth is inhibited,[4],≤ 2 mg/mL
"Cc1c2c(c(O)c3c(O)cccc13)C(=O)[C@]1(O)C(O)=C(C(N)=O)C(=O)[C@@H](N(C)C)[C@@H]1C2 [aTc, anhydrous tetracycline]",repression and expression of a fluorescent protein in the absence and presence of aTc,[5],reliable repression and expression of a fluorescent protein
same,secretion of J3-VHH protein into the supernatant,[6],secreted any protein into the supernatant
TetR-ClpC-slpA: hybrid regulon: L. fermentum BR11 ClpC promoter fused to slpA 5' untranslated region driving TetR (nucleic acid) DNA: CTTAAAATATAGTCATAGAATTAGGGCGTCGGTTTTAAAAGTGTGGTAAAATAATGGTCAAGATTAGTGGTAAGTAATAGGACGTGCTTCAGGCGTGTTGCCTGTACGCATGCTGATTCTTCAGCAAGACTACTACCTCATGAGAGTTATAGACTCATGGTATAGGCTCCTATCACATGCTGAACCTATGGCCTATTACATTTTTTTATATTTCAAGGAGGAAAAGACCACATGATGTCACGCTTGGATAAATCAAAAGTTATTAATTCAGCATTGGAATTGTTGAATGAAGTTGGCATTGAAGGCTTGACCACCCGCAAATTGGCACAAAAATTGGGCGTTGAACAACCAACCTTGTATTGGCATGTTAAAAATAAACGCGCATTGTTGGATGCATTGGCAATTGAAATGTTGGATCGCCATCATACCCATTTTTGCCCATTGGAAGGCGAATCATGGCAAGATTTTTTGCGCAATAATGCAAAATCATTTCGCTGCGCATTGTTGTCACATCGCGATGGCGCAAAAGTTCATTTGGGCACCCGCCCAACCGAAAAACAATATGAAACCTTGGAAAATCAATTGGCATTTTTGTGCCAACAAGGCTTTTCATTGGAAAATGCATTGTATGCATTGTCAGCAGTTGGCCATTTTACCTTGGGCTGCGTTTTGGAAGATCAAGAACATCAAGTTGCAAAAGAAGAACGCGAAACCCCAACCACCGATTCAATGCCACCATTGTTGCGCCAAGCAATTGAATTGTTTGATCATCAAGGCGCAGAACCAGCATTTTTGTTTGGCTTGGAATTGATTATTTGCGGCTTGGAAAAACAATTGAAATGCGAATCAGGCTCATAA,function of hybrid promoter driving TetR,[7],functional
"SEQ ID NO:15: aTc-inducible slpA promoter variant combining all alterations, maximally repressive (nucleic acid) DNA: TGCTTGTGGGGGTAAGCGGTAGGTGAAATATTACAAATAGTATTTTTCGGTCATTTTAACTTGCTATTTCTTGAAGAGGTTAGTACAATATGAATCGTGGTCCCTATCAGTGATAGAGATTGACATCCCTATCAGTGATAGAGATATTCTTCAGCAAGACTACTACCTCATGAGAGTTATAGACTCATGGATCTTGCTTTGAAGGGTTTTGTACATTATAGGCTCCTATCACATGCTGAACCTATGGCCTATTACATTTTTTTATATTTCAAGGAGGAAAAGACCAC",reduction in maximum inducible expression,[8]; FIG. 16,~10 ×
same,basal expression in the absence of aTc,"[8]; stationary phase for 0, 2.5, 7.5 and 17.5 hours",no basal expression was detected
Variant 2: slpA promoter with two tetO boxes after the transcriptional start site (nucleic acid) DNA: TGCTTGTGGGGGTAAGCGGTAGGTGAAATATTACAAATAGTATTTTTCGGTCATTTTAACTTGCTATTTCTTGAAGAGGTTAGTACAATATGAATCGTGGCCCTATCAGTGATAGAGATCAGGCGCCCTATCAGTGATAGAGATGATTCTTCAGCAAGACTACTACCTCATGAGAGTTATAGACTCATGGATCTTGCTTTGAAGGGTTTTGTACATTATAGGCTCCTATCACATGCTGAACCTATGGCCTATTACATTTTTTTATATTTCAAGGAGGAAAAGACCAC,expression versus wild-type promoter,[9],3 fold-less than the wild-type promoter
"promoter for the ribosomal RNA 3-a from L. plantarum: L. plantarum ribosomal RNA promoter 3-a, used to drive TetR (SEQ ID NO: 1) (nucleic acid) DNA: TTATAAAAAGATGTTGACAGCTTGTTCTGATGATGATAAACTTTAATAGTTGCGAGAGAAAGAGGAGAAATACTAGATGATGTCTAGATTAGATAAAAGTAAAGTGATTAACAGCGCATTAGAGCTGCTTAATGAGGTCGGAATCGAAGGTTTAACAACCCGTAAACTCGCCCAGAAGCTAGGTGTAGAGCAGCCTACATTGTATTGGCATGTAAAAAATAAGCGGGCTTTGCTCGACGCCTTAGCCATTGAGATGTTAGATAGGCACCATACTCACTTTTGCCCTTTAGAAGGGGAAAGCTGGCAAGATTTTTTACGTAATAACGCTAAAAGTTTTAGATGTGCTTTACTAAGTCATCGCGATGGAGCAAAAGTACATTTAGGTACACGGCCTACAGAAAAACAGTATGAAACTCTCGAAAATCAATTAGCCTTTTTATGCCAACAAGGTTTTTCACTAGAGAATGCATTATATGCACTCAGCGCTGTGGGGCATTTTACTTTAGGTTGCGTATTGGAAGATCAAGAGCATCAAGTCGCTAAAGAAGAAAGGGAAACACCTACTACTGATAGTATGCCGCCATTATTACGACAAGCTATCGAATTATTTGATCACCAAGGTGCAGAGCCAGCCTTCTTATTCGGCCTTGAATTGATCATATGCGGATTAGAAAAACAACTTAAATGTGAAAGTGGGTCTTAA",expression strength relative to slpA,[10],5 fold weaker than that of slpA
